Experimental data taken from publication PMC5687316 (Acta Pharmaceutica Sinica. B, 2017).
Counter-ions that a name gives are not always drawn.

Key:
[1] = Nonspecific binding to HLMs; type: in vitro ADME, human; settings: HLMs 0.2 mg/mL
[2] = Maximum plasma concentration in humans after oral administration; settings: human, calculated as Cmax × fu; icotinib 125 mg × 3 daily, erlotinib 150 mg
[3] = molecular target: T1, UGT1A1 (Homo sapiens, UniProt P22309); test: Inhibition of NCHN-4-O-glucuronidation in recombinant human UGT1A1; type: biochemical; settings: for activity at 50 min, 10 µmol/L: human, recombinant human UGT1A1, pH 7.4, probe NCHN (NCHN-4-O-glucuronidation); for Inhibition type: recombinant human UGT1A1, Lineweaver-Burk and Dixon plots
T1 sequence (P22309 26-533): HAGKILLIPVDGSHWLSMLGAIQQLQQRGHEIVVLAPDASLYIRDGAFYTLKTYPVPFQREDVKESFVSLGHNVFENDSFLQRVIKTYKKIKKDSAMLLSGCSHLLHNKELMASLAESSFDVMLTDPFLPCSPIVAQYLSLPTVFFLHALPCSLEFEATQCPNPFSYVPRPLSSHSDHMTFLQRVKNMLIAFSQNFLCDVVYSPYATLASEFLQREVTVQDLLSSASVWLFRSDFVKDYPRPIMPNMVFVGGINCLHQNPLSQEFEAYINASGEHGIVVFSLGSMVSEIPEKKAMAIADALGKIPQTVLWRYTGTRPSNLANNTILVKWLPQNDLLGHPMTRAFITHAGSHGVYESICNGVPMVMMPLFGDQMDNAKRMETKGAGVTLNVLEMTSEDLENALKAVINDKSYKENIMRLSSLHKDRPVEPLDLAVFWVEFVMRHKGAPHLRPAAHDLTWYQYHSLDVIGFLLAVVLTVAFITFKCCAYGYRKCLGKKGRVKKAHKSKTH

[4] = molecular target: T2, UGT1A1 in HLMs (Homo sapiens, UniProt P22309); type: biochemical; settings: for Inhibition type: HLM, Lineweaver-Burk and Dixon plots; for time dependence of UGT1A1 inhibition: data not shown; for phase II metabolites of the inhibitor in the incubations: UGT1A1/HLM incubations with UDPGA
T2 sequence (P22309 26-533): T1 sequence (P22309 26-533)

[5] = Binding to human plasma

binding to HLMs [1] | Cmax,u [2] | activity at 50 min, 10 µmol/L [3] | Inhibition type [3] | Inhibition type [4] | time dependence of UGT1A1 inhibition ([4]; HLMs) | phase II metabolites of the inhibitor in the incubations [4] | fraction unbound [5] | Ki [3] | IC50 ([3]; IC50, recombinant human UGT1A1 0.06 mg/mL, NCHN-4-O-glucuronidation) | Ki [4] | fold difference in Ki between icotinib and erlotinib ([4]; HLMs, NCHN-O-glucuronidation) | IC50 ([4]; IC50, HLM 0.2 mg/mL, NCHN-4-O-glucuronidation) | Compound
negligible binding | 550 nM | 19% | Noncompetitive | Noncompetitive | not time-dependent | no phase II metabolites | 0.09 | – | – | – | – | – | C#Cc1cccc(Nc2ncnc3cc(OCCOC)c(OCCOC)cc23)c1 [Erlotinib]
negligible binding | 530 nM | 36% | Noncompetitive | Noncompetitive | not time-dependent | no phase II metabolites | 0.11 | 10 µM | 8.76 ± 0.78 µM | 8.55 µM | about 7 fold | 5.15 ± 0.28 µM | C#Cc1cccc(Nc2ncnc3cc4c(cc23)OCCOCCOCCO4)c1 [Icotinib, 4-[(3-ethynylphenyl)amino]-6,7-benzo-12-crown-4-quinazoline hydrochloride]
